Data reported in patent US8193224B2, “Medicinal composition for prevention or treatment of parasitic protozoan infection” (Fujifilm Corporation, priority 2004, dated 2012).

Tests used:
[1] = system: Trypanosoma cruzi (Tulahuen C2C4 strain); test: American trypanosome protozoa growth inhibition screening test; assay type: cell-based; details: for EC50: Trypanosoma cruzi, Tulahuen C2C4 strain in rat L6 cells, 96 hours, CPRG/Nonidet, read-out: 50% growth inhibition concentration Trypanosoma cruzi; for Selective toxicity: chemotherapy index = EC50 rat L6 cells / EC50 American trypanosome protozoa
Procedure: In the present example, amastigote and trypomastigote infected with rat L6 cells of protozoa of Trypanosoma cruzi (Tulahuen C2C4 strain) were used. As medium used in the test, RPMI 1640 medium containing L6 cells was supplemented so that L-glutamine (200 mM) becomes 1%, fetal bovine serum becomes 10%, which was cultured under CO2 concentration 5%, at 37° C.
The compounds of the present invention to be used in the test and the positive target agent (benznidazole) were dissolved in DMSO to make a test solution of a predetermined concentration. A medium containing 5×10^3 protozoa was added to wells of a 96-well culture plate, and pre-cultured for 48 hours. After replacing the medium, test solution containing drug of a predetermined concentration or a drug-free DMSO was added. Test solutions were taken by duplicates. After culturing the culture plate in an incubator for 96 hours, growth inhibition activity was tested. Test was conducted as follows.
50 μL of CPRG/Nonidet was added to each well, and allowed to rest for 2 to 6 hours. Next, the culture plate was placed on a fluorescent micro-plate reader, and the absorbance was measured at 540 nm. Growth inhibition rate was calculated with the following formula based on the protozoan infection rate which was obtained by calculating trypanosome infection rate of the test solution added group and control group, to obtain a 50% growth inhibition concentration (EC50). Growth inhibition rate (%)={1−(b−a)/(c−a)}×100 a: early infection rate b: infection rate when test solution was added c: infection rate of the control

[2] = system: Leishmania donovani (MHOM/ET/67/L82 strain); test: Leishmania protozoa growth inhibition screening test; assay type: cell-based; details: Leishmania donovani; MHOM/ET/67/L82 strain amastigote, pH 5.4, 72 hours, Alamar Blue; read-out: 50% growth inhibition concentration Leishmania donovani
Procedure: In the present example, Leishmania donovani (MHOM/ET/67/L82 strain) was used. Protozoa was subcultured in Syrian Golden hamster, from which an amastigote was obtained. In the experiment, SM medium supplemented with 10% heat-treated bovine fetal serum was used, which was adjusted to pH 5.4, and cultured in an atmosphere of 5% CO2 concentration, at 37° C.
The compounds of the present invention to be used in the present test and the positive target drug (miltefosine) were dissolved in DMSO to make a test solution of a predetermined concentration. After adding a medium containing a predetermined number of protozoa to wells of a 96-well culture plate and pre-treating, concentration of the amastigote was measured with CASY cell analysis system (Scharfe, Germany). Then, test solution containing a drug of a predetermined concentration or a drug-free DMSO was added. Test solutions were taken by duplicates. After culturing the culture plate for 72 hours in an incubator, growth inhibition activity was tested. Test was conducted as follows.
10 μL of Alamar Blue aqueous solution was added to each well, and the resultant was further cultured for 2 hours. Next, the culture plate was placed on a fluorescent micro-plate reader (Spectramax Gemeni XS; US Molecular Device), radiated at an excited wavelength of 536 nm. Fluorescent intensity was measured at 588 nm, and infection rate of leishmania protozoa of the test solution added-group and control was calculated, to obtain a 50% growth inhibition concentration (EC50). Growth inhibition rate (%)={1−(b−a)/(c−a)}×100 a: early infection rate b: infection rate when test solution was added c: infection rate of the control

SMILES | EC50 [1] [nM] | Selective toxicity [1] | EC50 [2] [nM]
CCN1/C(=C/C=c2\s/c(=C\c3sc4c5ccccc5ccc4[n+]3CC)n(CC)c2=O)Sc2ccc3ccccc3c21 [A-1] | 5100 | 5.9 | 8.3
CCN1/C(=C/C=c2\s/c(=C\C3=[N+](CC)CCS3)n(CC)c2=O)C=Cc2ccccc21 [A-10] | 160 | 130 | 150
CCN1C(C)=CS/C1=C\C=c1/s/c(=C\c2sc3ccccc3[n+]2CC)n(CC)c1=O [A-15] | 980 | 22 | 170
